# According to patent publication US20240287138A1, “CYCLIC PEPTIDES FOR INHIBITING TNF RECEPTOR 1 ACTIVITY” (Merck Sharp & Dohme LLC, priority 2023, published 2024):
# Numbered stars: 1 amine (or outer) side, 2 acyl side, 3 side chain; on linkers, the order of the positions; unused ones are H or OH. Bridge positions count the residues as written; N and C are the ends. Square brackets hold non-standard residues; d marks the D form. Peptide text beside a SMILES is read from it. Trp(βS-Me,7-OMe) = COc1cccc2c([C@H](C)[C@H](N)C(=O)O)c[nH]c12; Trp(1-CH2COOH) = N[C@@H](Cc1cn(CC(=O)O)c2ccccc12)C(=O)O; Morpholine(3S-CO,6,6-Me2) = CC1(C)CN[C@H](C(=O)O)CO1; Trp(βS-Me) = C[C@@H](c1c[nH]c2ccccc12)[C@H](N)C(=O)O; Trp(7-CN) = N#Cc1cccc2c(C[C@H](N)C(=O)O)c[nH]c12; Trp(7-Cl) = N[C@@H](Cc1c[nH]c2c(Cl)cccc12)C(=O)O; Phe(4-CONH2) = NC(=O)c1ccc(C[C@H](N)C(=O)O)cc1; Phe(4-COOH) = N[C@@H](Cc1ccc(C(=O)O)cc1)C(=O)O; Phe(4-CH2NH2) = NCc1ccc(C[C@H](N)C(=O)O)cc1; dPro(4S-NH2) = N[C@@H]1CN[C@@H](C(=O)O)C1; Pip(5R-OH) = O=C(O)[C@@H]1CC[C@@H](O)CN1; X1 = O=C([C@@H]1CC[C@H](N[*:1])C1)[*:2]; 2Nal = N[C@@H](Cc1ccc2ccccc2c1)C(=O)O; 4Pal = N[C@@H](Cc1ccncc1)C(=O)O; dHyp = O=C(O)[C@H]1C[C@H](O)CN1; Cit = NC(=O)NCCC[C@H](N)C(=O)O; NEtAla = CCN[C@@H](C)C(=O)O; αMeS = C[C@](N)(CO)C(=O)O; Nle = CCCC[C@H](N)C(=O)O; Sar = CNCC(=O)O
# Experiments:
# [1] = molecular target: T1, human soluble TNFR1 (sTNFR1) (Homo sapiens, UniProt P19438); assay: Human sTNFR1-peptide displacement assay (LanthaScreen Eu TR-FRET binding assay); conditions: displacement of biotinylated peptide SEQ ID NO. 1 from sTNFR1; for Kd: 20 point titration, 5-parameter fit based on Morrison equation (tight binding), read-out: TR-FRET Kd^app; for IC50: weaker binders, 10 pts titration, 4-parameter logistic model, read-out: TR-FRET, IC50
# T1 construct: made in house; host or cells: Sf21 (baculovirus)
# T1 sequence (P19438 with tags, fused parts or gaps): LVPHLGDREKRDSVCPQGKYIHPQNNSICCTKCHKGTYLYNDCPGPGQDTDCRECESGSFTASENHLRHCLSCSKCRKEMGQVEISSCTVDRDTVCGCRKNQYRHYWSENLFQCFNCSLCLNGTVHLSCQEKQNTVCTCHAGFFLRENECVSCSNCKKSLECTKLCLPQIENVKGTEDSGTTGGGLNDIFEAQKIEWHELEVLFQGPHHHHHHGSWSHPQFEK
# In short: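 Readout is the 665/615 nm TR-FRET ratio (Eu anti-His donor, streptavidin-Alexa647 acceptor), normalized to DMSO and saturating displacer, fit by Morrison-based five-parameter logistic for Kd^app. His-tagged sTNFR1 (1-211) prebound to 100 nM biotinylated peptide SEQ ID NO.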
# [2] = molecular target: T2, human TNFR1 extracellular domain (ECD) protein (Homo sapiens, UniProt P19438); assay: SPR binding affinity to captured human TNFR1 ECD; conditions: biotinylated human TNFR1 ECD on streptavidin chip; from kon and koff; read-out: SPR hTNFR1 KD
# T2 construct: HRV 3C protease cleavage site (C); 6His (C, cleaved yes); made in house; host or cells: Sf21 insect cells (baculovirus), secreted
# T2 sequence (P19438 30-211): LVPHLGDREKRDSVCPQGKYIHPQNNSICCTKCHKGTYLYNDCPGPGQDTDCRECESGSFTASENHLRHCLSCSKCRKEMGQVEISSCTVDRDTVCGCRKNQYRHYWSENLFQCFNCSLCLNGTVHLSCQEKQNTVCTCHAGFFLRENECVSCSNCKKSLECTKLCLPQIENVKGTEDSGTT
# In short: (§1)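 Peptide binding kinetics read by SPR in HEPES pH 7.4 running buffer with 2% DMSO, with TNFR2 ECD tested in parallel for off-target binding. Receptor ECDs, insect-cell expressed and biotinylated at C-terminal avi-tag, were captured via streptavidin. KA derived from association and dissociation rate constants.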
# human TNFR2 ECD protein = molecular target: T3, human TNFR2 ECD protein (Homo sapiens, UniProt P20333); assay: SPR off-target binding (selectivity) to human TNFR2 ECD; conditions: biotinylated human TNFR2 ECD on streptavidin chip; read-out: SPR hTNFR2 KD
# T3 construct: HRV 3C protease cleavage site (C); 6His (C, cleaved yes); made in house; host or cells: Sf21 insect cells (baculovirus), secreted
# T3 sequence (P20333 23-257): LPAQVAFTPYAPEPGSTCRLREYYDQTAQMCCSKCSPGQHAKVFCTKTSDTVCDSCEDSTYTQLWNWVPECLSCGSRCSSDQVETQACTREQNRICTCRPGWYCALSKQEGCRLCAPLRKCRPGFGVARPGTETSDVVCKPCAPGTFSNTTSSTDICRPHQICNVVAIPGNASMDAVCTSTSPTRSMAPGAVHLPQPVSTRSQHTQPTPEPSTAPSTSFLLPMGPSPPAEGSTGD
# In short: as §1
Compound,Kd [1] [nM],Kd [2] [nM],Kd (human TNFR2 ECD protein) [nM],IC50 [1] [nM]
"CCCC[C@@H]1NC(=O)[C@@H]2CC[C@@H](C2)NC(=O)[C@H]([C@@H](C)c2c[nH]c3c(OC)cccc23)NC(=O)CN(C)C(=O)[C@H](Cc2ccc(C(=O)O)cc2)NC(=O)[C@H](Cc2ccc(C(N)=O)cc2)NC(=O)[C@](C)(CO)NC(=O)[C@H](Cc2c[nH]c3c(C#N)cccc23)NC(=O)[C@H](Cc2ccc(C(=O)O)cc2)NC(=O)[C@H](CC(N)=O)NC(=O)[C@H]2C[C@H](N)CN2C(=O)[C@H](Cc2cn(CC(=O)O)c3ccccc23)NC(=O)[C@@H]2CC[C@@H](O)CN2C(=O)[C@H](Cc2ccncc2)NC1=O [SEQ ID NO. 104] (cyclo([4Pal][Pip(5R-OH)][Trp(1-CH2COOH)][dPro(4S-NH2)]N[Phe(4-COOH)][Trp(7-CN)][αMeS][Phe(4-CONH2)][Phe(4-COOH)][Sar][Trp(βS-Me,7-OMe)][X1][Nle]))",0.09,0.02,> 1000,–
"CCCC[C@@H]1NC(=O)CSC[C@@H](C(N)=O)NC(=O)[C@H]([C@@H](C)c2c[nH]c3c(OC)cccc23)NC(=O)CN(C)C(=O)[C@H](Cc2ccc(O)cc2)NC(=O)[C@H](Cc2ccc(C(=O)O)cc2)NC(=O)[C@](C)(CO)NC(=O)[C@H](Cc2c[nH]c3c(Cl)cccc23)NC(=O)[C@H](Cc2ccncc2)NC(=O)[C@H](CC(N)=O)NC(=O)[C@H](C)N(CC)C(=O)[C@H](Cc2c[nH]c3ccccc23)NC(=O)[C@@H]2COC(C)(C)CN2C(=O)[C@H](Cc2ccncc2)NC1=O [SEQ ID NO. 183] ({CH2CO}-[Nle][4Pal][Morpholine(3S-CO,6,6-Me2)]W[NEtAla]N[4Pal][Trp(7-Cl)][αMeS][Phe(4-COOH)]Y[Sar][Trp(βS-Me,7-OMe)]C-NH2; thioether N-14)",0.17,0.1,> 1000,0.5
"CCCC[C@@H]1NC(=O)[C@@H]2CC[C@@H](C2)NC(=O)[C@H]([C@@H](C)c2c[nH]c3c(OC)cccc23)NC(=O)CN(C)C(=O)[C@H](Cc2ccc(C(N)=O)cc2)NC(=O)[C@H](Cc2ccc(C(N)=O)cc2)NC(=O)[C@](C)(CO)NC(=O)[C@H](Cc2c[nH]c3c(Cl)cccc23)NC(=O)[C@H](Cc2ccc(C(=O)O)cc2)NC(=O)[C@H](CC(N)=O)NC(=O)[C@H]2C[C@H](O)CN2C(=O)[C@H](Cc2c[nH]c3ccccc23)NC(=O)[C@@H]2CC[C@@H](O)CN2C(=O)[C@H](Cc2ccncc2)NC1=O [SEQ ID NO. 196] (cyclo([4Pal][Pip(5R-OH)]W[dHyp]N[Phe(4-COOH)][Trp(7-Cl)][αMeS][Phe(4-CONH2)][Phe(4-CONH2)][Sar][Trp(βS-Me,7-OMe)][X1][Nle]))",0.09,0.05,> 1000,–
C[C@@H](c1c[nH]c2ccccc12)[C@@H]1NC(=O)CN(C)C(=O)[C@H](Cc2ccc(CN)cc2)NC(=O)[C@H](Cc2ccc(C(=O)O)cc2)NC(=O)[C@](C)(CO)NC(=O)[C@H](Cc2ccc3ccccc3c2)NC(=O)[C@H](Cc2ccc(CN)cc2)NC(=O)[C@H](CC(N)=O)NC(=O)[C@H]2CCCN2C(=O)[C@H]([C@@H](C)c2c[nH]c3ccccc23)NC(=O)[C@H](CO)NC(=O)[C@H](Cc2ccc(CN)cc2)NC(=O)[C@H](CCCNC(N)=O)NC(=O)CSC[C@@H](C(N)=O)NC1=O [SEQ ID NO. 206] ({CH2CO}-[Cit][Phe(4-CH2NH2)]S[Trp(βS-Me)][dP]N[Phe(4-CH2NH2)][2Nal][αMeS][Phe(4-COOH)][Phe(4-CH2NH2)][Sar][Trp(βS-Me)]C-NH2; thioether N-14),–,3,> 1000,26
